Measured values reported in patent US20110045101A1, “FUNGICIDAL SUBSTITUTED AZOLES” (E.I. Du Pont De Nemours and Company, priority 2009, published 2011).
Marks after values point to notes of the source that are not given here.

Tests used:
Assay type in all cases: in vivo
Conditions in all cases: 100 = 100% disease control
Botrytis cinerea = assay: Test C: tomato Botrytis on tomato seedlings, sprayed the day before inoculation, visual disease rating
Method in brief: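 Disease ratings refer to tomato seedlings treated by run-off spraying with compound suspensions, mostly 200 ppm (500 g/ha equivalent) and in marked cases 40 ppm. Carrier: acetone/purified water 50/50 with 250 ppm polyhydric alcohol ester surfactant, after predissolving in acetone.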

Alternaria solani = assay: Test D: tomato early blight, sprayed the day before inoculation, visual disease rating
Method in brief: (§1)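 Acetone solution (3% of final volume) of each compound is suspended in 50/50 acetone/water with 250 ppm Trem® 014. Plants are sprayed to run-off at 200 ppm, equivalent to 500 g/ha, or at 40 ppm for starred values.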

Septoria nodorum = assay: Test F: wheat glume blotch on wheat seedlings, sprayed the day before inoculation, visual disease rating
Method in brief: as §1

Septoria tritici = assay: Test G: wheat leaf blotch on wheat seedlings, sprayed the day before inoculation, visual disease rating
Method in brief: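 Spray to run-off, 200 ppm (≈500 g/ha; starred = 40 ppm), acetone/water 50/50 + 250 ppm Trem® 014. Spore inoculation +1 d. 24° C saturated 48 h → 20° C 19 d. Visual rating.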

[1] = tested on: Puccinia recondita f. sp. tritici; assay: Test H: wheat leaf rust, test suspension sprayed after inoculation of wheat seedlings, visual disease rating
Method in brief: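 Wheat seedlings inoculated with P. recondita spores, held 24 h saturated at 20 °C, then 2 days in growth chamber at 20 °C; compound suspension (acetone/water with Trem 014) sprayed to run-off afterwards. Rated visually; 200 ppm (≈500 g/ha) unless marked *, which denotes 40 ppm.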

[2] = tested on: Puccinia recondita f. sp. tritici; assay: Test I: wheat leaf rust on wheat seedlings, sprayed the day before inoculation, visual disease rating
Method in brief: as §1

[3] = tested on: Erysiphe graminis f. sp. tritici; assay: Test J: wheat powdery mildew on wheat seedlings, sprayed the day before inoculation, visual disease rating
Method in brief: as §1

[4] = 200 ppm, 0 = no control relative to controls
[5] = 40 ppm (marked *), 0 = no control

Row | Structure (SMILES) | Test C disease control rating (Botrytis cinerea; [4]) [%] | Test D disease control rating (Alternaria solani; [4]) [%] | Test F disease control rating (Septoria nodorum; [4]) [%] | Test G disease control rating (Septoria tritici; [4]) [%] | Test H disease control rating [1, 4] [%] | Test I disease control rating [2, 4] [%] | Test J disease control rating [3, 4] [%] | other results
1 | CN(C)c1ncn(-c2cccc(F)c2)c1-c1c(F)cc(F)cc1F [compound 363] | 99 | 0 | 0 | 53 | 9 | 0 | 0 | –
2 | COc1cc(F)c(-n2c(Cl)nc(CCl)c2-c2ccc(Cl)cc2)c(F)c1 [compound 397] | – | – | – | – | – | – | – | Test C disease control rating (Botrytis cinerea; [5]): 100* %; Test D disease control rating (Alternaria solani; [5]): 98* %; Test F disease control rating (Septoria nodorum; [5]): 0* %; Test G disease control rating (Septoria tritici; [5]): 94* %; Test H disease control rating [1, 5]: 0* %; Test I disease control rating [2, 5]: 88* %; Test J disease control rating [3, 5]: 13* %
3 | N#Cc1ccc(F)c(-c2c(Cl)nc(Br)n2-c2ccc(Cl)cc2)c1F [Compound 419, 3-[2-bromo-4-chloro-1-(4-chlorophenyl)-1H-imidazol-5-yl]-2,4-difluorobenzonitrile] | – | – | – | – | – | – | – | pest or weed control at 200 ppm (Botrytis cinerea; Botrytis cinerea, 120 h, 200 ppm, 0 = no control relative to controls): 100%; pest or weed control at 200 ppm (Alternaria solani; Alternaria solani, 168 h, 200 ppm, 0 = no control relative to controls): 100%; pest or weed control at 200 ppm (Septoria nodorum; Parastagonospora nodorum, 264 h, 200 ppm, 0 = no control relative to controls): 100%; pest or weed control at 200 ppm (Septoria tritici; Zymoseptoria tritici, 504 h, 200 ppm, 0 = no control relative to controls): 100%; pest or weed control at 200 ppm ([1]; Puccinia recondita, 96 h, 200 ppm, 0 = no control relative to controls): 0%; pest or weed control at 200 ppm ([2]; Puccinia recondita, 168 h, 200 ppm, 0 = no control relative to controls): 97%; pest or weed control at 200 ppm ([3]; Blumeria graminis, 168 h, 200 ppm, 0 = no control relative to controls): 99%
4 | Fc1cccc(-n2cnc(Cl)c2-c2c(F)cc(F)cc2F)c1 [compound 362] | 100 | 99 | 0 | 86 | 0 | 83 | 49 | –
5 | Fc1ccc(F)c(-c2c(Br)nc(Cl)n2-c2ccc(Cl)cc2)c1Cl [compound 385] | – | – | – | – | – | – | – | Test C disease control rating (Botrytis cinerea; [5]): 99* %; Test D disease control rating (Alternaria solani; [5]): 99* %; Test F disease control rating (Septoria nodorum; [5]): 0* %; Test G disease control rating (Septoria tritici; [5]): 95* %; Test H disease control rating [1, 5]: 0* %; Test I disease control rating [2, 5]: 95* %; Test J disease control rating [3, 5]: 99* %
6 | Cc1ncc(-c2ccc(Cl)cc2)n1-c1c(F)cc([N+](=O)[O-])cc1F [compound 700] | – | – | – | – | – | – | – | Test C disease control rating (Botrytis cinerea; 40 ppm (marked *)): 93* %; Test D disease control rating (Alternaria solani; 40 ppm (marked *)): 0* %; Test F disease control rating (Septoria nodorum; 40 ppm (marked *)): 0* %; Test G disease control rating (Septoria tritici; 40 ppm (marked *)): 53* %; Test H disease control rating ([1]; 40 ppm (marked *)): 0* %; Test I disease control rating ([2]; 40 ppm (marked *)): 0* %; Test J disease control rating ([3]; 40 ppm (marked *)): 0* %
7 | COc1ccc(Cl)c(-c2c(Cl)nc(Cl)n2-c2ccc(Cl)cc2)c1F [compound 518] | 100 | 99 | 99 | 98 | 0 | 98 | 100 | –
8 | COc1cc(F)c(-c2c(Cl)nc(C)n2-c2cccc(OC(F)(F)F)c2)c(F)c1 [compound 589] | 100 | 99 | 98 | 98 | 97 | 100 | 100 | –
9 | COc1cc(F)c(-c2c(N(C)C)ncn2Cc2ccc(Cl)cc2)c(F)c1 [compound 265] | – | – | – | – | – | – | – | Test C disease control rating (Botrytis cinerea; 200 ppm, 0 = no control): 97%; Test D disease control rating (Alternaria solani; 200 ppm, 0 = no control): 0%; Test F disease control rating (Septoria nodorum; 200 ppm, 0 = no control): 60%; Test G disease control rating (Septoria tritici; 200 ppm, 0 = no control): 86%; Test H disease control rating ([1]; 200 ppm, 0 = no control): 32%; Test I disease control rating ([2]; 200 ppm, 0 = no control): 61%; Test J disease control rating ([3]; 200 ppm, 0 = no control): 0%
10 | Cc1nc(Br)c(Cc2ccc(F)cc2F)n1-c1ccc(Cl)cc1 [compound 404] | 100 | 0 | 0 | 99 | 0 | 97 | 98 | –
11 | Fc1ccc(F)c(-c2c(Br)ncn2-c2ccc(Cl)cc2)c1Cl [compound 343] | 100 | 97 | 64 | 94 | 0 | 93 | 98 | –
12 | COc1ccc(F)c(-c2c(Cl)nc(Br)n2-c2ccc(C#N)cc2)c1F [compound 596] | 94 | 73 | 0 | 98 | 0 | 74 | 97 | –
13 | Cc1nc(Br)c(Cc2c(F)cc(F)cc2F)n1-c1c(Cl)cccc1Cl [compound 538] | 99 | 0 | 0 | 99 | 27 | 100 | 100 | –
14 | COc1cc(F)c(-c2cnc(Cl)n2-c2ccc(C(F)(F)F)nc2)c(F)c1 [compound 699] | 100 | 99 | 0 | 99 | 0 | 41 | 99 | –
15 | Cc1ncn(-c2ccc(Cl)c(F)c2)c1-c1ccc(Br)cn1 [compound 347] | 93 | 0 | 0 | 70 | 26 | 9 | 0 | –
16 | Fc1cc(F)c(-c2c(Cl)ncn2-c2ccc(OC(F)(F)F)cc2)c(F)c1 [compound 587] | 25 | 80 | 0 | 97 | 7 | 0 | 97 | –
17 | Cc1nc(Cl)c(-c2ccc(Cl)cc2)n1-c1ccc(F)cc1Cl [compound 422] | 100 | 100 | 60 | 100 | 0 | 99 | 100 | –
18 | Cc1nc(Cl)n(-c2ccc(Cl)c(F)c2)c1-c1sc(Cl)nc1Cl [compound 381] | 94 | 0 | 0 | 78 | 0 | 0 | 0 | –
19 | COc1cc(F)c(-n2c(Br)nc(Cl)c2-c2ccc(Cl)cc2)c(F)c1 [compound 373] | – | – | – | – | – | – | – | Test C disease control rating (Botrytis cinerea; [5]): 99* %; Test D disease control rating (Alternaria solani; [5]): 98* %; Test F disease control rating (Septoria nodorum; [5]): 60* %; Test G disease control rating (Septoria tritici; [5]): 92* %; Test H disease control rating [1, 5]: 0* %; Test I disease control rating [2, 5]: 95* %; Test J disease control rating [3, 5]: 99* %
20 | N#Cc1ccc(F)c(-c2c(Cl)nc(Br)n2-c2ccc(Cl)nc2)c1F [compound 701] | 100 | 100 | 91 | 99 | 7 | 100 | 95 | –
21 | Cc1nc(Cl)c(Cc2c(F)cc(F)cc2F)n1-c1cc(Cl)cc(Cl)c1 [compound 540] | 15 | 0 | 0 | 3 | 0 | 0 | 21 | –
22 | COc1cc(F)c(-n2cnc(C)c2-c2ccc(Cl)nc2)c(F)c1 [Compound 685, 2-chloro-5-[1-(2,6-difluoro-4-methoxyphenyl)-4-methyl-1H-imidazol-5-yl]pyridine] | – | – | – | – | – | – | – | pest or weed control at 40 ppm (Botrytis cinerea; Botrytis cinerea, 120 h, 40 ppm (marked *)): 100%; pest or weed control at 40 ppm (Alternaria solani; Alternaria solani, 168 h, 40 ppm (marked *)): 99%; pest or weed control at 40 ppm (Septoria nodorum; Parastagonospora nodorum, 264 h, 40 ppm (marked *)): 0%; pest or weed control at 40 ppm (Septoria tritici; Zymoseptoria tritici, 504 h, 40 ppm (marked *)): 87%; pest or weed control at 40 ppm ([1]; Puccinia recondita, 96 h, 40 ppm (marked *)): 0%; pest or weed control at 40 ppm ([2]; Puccinia recondita, 168 h, 40 ppm (marked *)): 68%; pest or weed control at 40 ppm ([3]; Blumeria graminis, 168 h, 40 ppm (marked *)): 64%
